The text below walks through data of paper PMC9489722, “Identification and development of a subtype-selective allosteric AKT inhibitor suitable for clinical development” (Scientific Reports, 2022).

Like-named read-outs stand apart in the source and are kept apart here. Where only a bound is given, the exact number is not on record here.

Data set [1] addresses T1, AKT2 (Homo sapiens, UniProt P31751).
T1 construct: purchased Signal Chem
Description: SelectScreen kinase selectivity profiling, AKT2. It is filed as biochemical. The note with it: read-out: % inhibition @ 10 µM, AKT2; 10 µM fixed concentration. The procedure: (§1) Off-target kinase activity was performed using the SelectScreen kinase profiling service against either mini 50 kinase or full 450 kinase panels using the Z’lyte and Adapta kinase activity platforms (performed by Thermofisher).

For data set [2], the target named is T2, AKT1 (Homo sapiens, UniProt P31749).
T2 construct: purchased Millipore
T2 sequence (P31749 whole entry): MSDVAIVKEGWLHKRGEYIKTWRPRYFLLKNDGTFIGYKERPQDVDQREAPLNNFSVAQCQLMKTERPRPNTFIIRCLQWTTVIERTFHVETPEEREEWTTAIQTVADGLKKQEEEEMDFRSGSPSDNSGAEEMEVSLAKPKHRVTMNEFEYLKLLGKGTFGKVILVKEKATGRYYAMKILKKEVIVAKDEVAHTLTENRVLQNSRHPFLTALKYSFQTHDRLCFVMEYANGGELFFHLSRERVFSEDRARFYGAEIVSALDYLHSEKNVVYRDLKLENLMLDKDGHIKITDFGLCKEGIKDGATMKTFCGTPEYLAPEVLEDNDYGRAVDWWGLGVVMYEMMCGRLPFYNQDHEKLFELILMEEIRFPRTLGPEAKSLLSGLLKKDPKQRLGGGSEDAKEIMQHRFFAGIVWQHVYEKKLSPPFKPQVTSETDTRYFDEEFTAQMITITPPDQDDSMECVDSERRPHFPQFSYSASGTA
The data set is described as follows: AKT1 biochemical kinase assay (FP iMAP). The procedure: Biochemical analysis was performed using kinases obtained from Millipore (AKT1, ∆AKT1, ∆AKT2, ∆AKT3) and Signal Chem (AKT2 and AKT3). […] (Molecular Devices) against the three isoforms of AKT and their PH domain null mutants. Compounds were dissolved in DMSO prior to screening at 14 point titration series in the range (50 µM–50 pM). Fluorescence polarisation was measured using a Biotek Synergy 4 Hybrid microplate reader. Percentage inhibition of kinase activity was calculated and IC50 values derived using non-linear regression on GraphPad Prism. Competition of ALM301 with ATP was determined using AKT1 under increasing ATP concentrations up to 1000 µM.

Data set [3] in a line: LogD7.4 assay. It is filed as physicochemical. The note with it: octanol/PBS buffer; octanol/PBS pH 7.4. The procedure:
Compounds (100 µM) were shaken at 300 rpm at room temperature for 4 h in a biphasic system of octanol and PBS buffer pH 7.4 in a 96-well plate in triplicate. The relative drug concentration in each phase was then determined by the peak area measurement from LC-UV analysis on an Agilent 1260 chromatography instrument (UV detection at 254 nm and 220 nm). LogD is calculated as follows: LogD = Log[peak area of compound in octanol x injection volume of buffer phase/peak area of compound in buffer x injection volume of octanol phase].

The target in data set [4] is T3, AKT3 (Homo sapiens, UniProt Q9Y243).
T3 construct: purchased Signal Chem
T3 sequence (Q9Y243 whole entry): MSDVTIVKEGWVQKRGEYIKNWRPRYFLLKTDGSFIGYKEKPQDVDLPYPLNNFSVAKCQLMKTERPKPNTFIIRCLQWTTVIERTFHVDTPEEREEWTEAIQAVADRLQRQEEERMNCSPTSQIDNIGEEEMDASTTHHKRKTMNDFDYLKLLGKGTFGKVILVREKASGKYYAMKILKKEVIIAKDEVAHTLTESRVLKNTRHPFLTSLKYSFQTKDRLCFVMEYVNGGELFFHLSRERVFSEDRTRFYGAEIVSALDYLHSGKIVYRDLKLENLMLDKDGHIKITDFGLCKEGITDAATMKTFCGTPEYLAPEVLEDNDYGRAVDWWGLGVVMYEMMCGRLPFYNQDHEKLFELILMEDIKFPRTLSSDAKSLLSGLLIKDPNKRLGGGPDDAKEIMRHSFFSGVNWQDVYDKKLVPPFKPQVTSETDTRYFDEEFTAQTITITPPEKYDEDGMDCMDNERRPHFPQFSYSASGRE
Description: SelectScreen kinase selectivity profiling, AKT3. The format is biochemical. The note with it: read-out: % inhibition @ 10 µM, AKT3; 10 µM fixed concentration. The procedure: as §1

For data set [5], the target named is p38α (Homo sapiens, UniProt Q16539). Description: SelectScreen kinase selectivity profiling, p38α. The format is biochemical. The procedure:
as §1

The subject of data set [6] is pAKT^S473 in A549 tumours. The data set is described as follows: PK/PD study in A549 lung cancer xenograft model. The format is in vivo, mouse. The note with it: single oral dose 10, 30 or 100 mg/kg. The procedure: In order to understand the relationship between ALM301 plasma exposure and in vivo AKT target engagement over time, a PK/PD study was carried out in a A549 lung cancer xenograft model. […] ALM301 plasma concentrations and levels of pAKT^S473 in tumours were measured using western blotting and immunohistochemistry (Fig. 4A, B and Supplementary Fig. S4A–C). […] Tumour sections were collected following one dose of either vehicle or 30 mg/kg of ALM301 at noted time intervals (1 h, 2 h, 4 h, 8 h, 24 h). Tissue sections were subsequently stained with pAKT antibody (brown) staining and scored for pAKT staining using a scale of 1–4 (low to high) (Fig. 4B).
For pharmacokinetic/pharmacodynamic (PK/PD) studies in A549 lung cancer xenografts, 150 male BALB/c nude mice aged 6–8 weeks and weighing approximately 18–22 g were inoculated with 1 × 10^7 A549 tumour cells (ATCC) in 0.1 mL of PBS with Matrigel (1:1) subcutaneously into the right flank. Once the mean tumour size reached 150–250 mm^3, the mice were randomised into treatment groups (18 mice per group) using a randomised block design (first, experimental animals are divided into homogeneous blocks according to their initial tumour volume; secondly, within each block, randomisation of animals to treatment groups was conducted so that each animal had the same probability of being assigned to a given treatment, thereby reducing systematic bias). Group sizes were devised based on previous pilot studies using a minimal numbers approach of n = 3 tumours per time-point (6 time-points per dose level). […] Tumour size was measured twice weekly in two dimensions using a caliper, and the volume expressed in mm^3 using the formula: V = 0.5 (a × b^2), where a and b are the long and short diameters of the tumour, respectively.

Data set [7] has as its system MCF-7 cells. The data set is described as follows: In vitro proliferation assay (CellTiter-Glo), MCF-7. The format is cell-based. The note with it: Homo sapiens, MCF7; MCF-7 cells (PI3KCA mutation), 72 h; read-out: anti-proliferative IC50, MCF-7. The procedure: MCF-7, T47D, NCI-H460, HCT116, LNCaP, A431, PC3, PANC-1, A549, HT29M, SKOV-3, Du145, HMEC-1, Hs888Lu, Hela, MDA-MB-231 and SW480 cells were obtained from American Type Culture Collection (ATCC). A2780, PNT2, U251MG, HFFF2 and Fr2 cells were obtained from Public Health England European Collection of Authenticated Cell Cultures (Phe ECACC). InMyoFib and NHLF cells were acquired from Lonza. Cells were then incubated with increasing concentration of inhibitor (1 nM to 100 µM) for 72 h at 37 °C. Cell viability was determined using the CellTiter-Glo Luminescent Cell Viability Assay (Promega). IC50 values were derived as previously stated.

The target of data set [8] is CYP 2D6 (Homo sapiens, UniProt P10635). The data set is described as follows: CYP2D6 inhibition. It is filed as in vitro ADME.
Chain of CYP 2D6 (P10635 whole entry): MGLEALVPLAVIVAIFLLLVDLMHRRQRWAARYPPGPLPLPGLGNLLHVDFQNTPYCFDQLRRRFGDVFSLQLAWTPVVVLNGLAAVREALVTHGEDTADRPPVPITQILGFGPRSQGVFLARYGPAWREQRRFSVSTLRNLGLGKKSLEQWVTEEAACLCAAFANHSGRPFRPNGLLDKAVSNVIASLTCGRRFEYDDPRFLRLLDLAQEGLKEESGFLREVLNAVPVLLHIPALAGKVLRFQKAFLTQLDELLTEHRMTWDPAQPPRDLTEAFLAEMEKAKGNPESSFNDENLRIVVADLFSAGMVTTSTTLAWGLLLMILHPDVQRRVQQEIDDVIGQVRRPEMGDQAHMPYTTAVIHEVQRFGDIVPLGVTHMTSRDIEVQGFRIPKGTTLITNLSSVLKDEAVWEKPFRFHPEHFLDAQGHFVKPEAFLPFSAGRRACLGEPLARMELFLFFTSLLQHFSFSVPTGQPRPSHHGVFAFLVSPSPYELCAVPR
Data set [9] in a line: Kinetic solubility assay. The format is physicochemical. Particulars: PBS buffer, pH 7.4, aqueous buffer, kinetic from dmso stock, PBS pH 7.4; read-out: Kinetic solubility pH7.4. The procedure: Compound solubility was tested in Dulbecco A PBS buffer at pH7.4 in Millipore MultiScreen Solubility Filter plates. Analysis was carried out on a Bioteck Synergy 4 plate reader (240–400 nm) and solubility quantified against a 5-point calibration curve.

Data set [10] can be described thus: In vitro microsomal stability, mouse. The format is in vitro ADME. The note with it: pH 7.4; mouse liver microsomes; read-out: mouse LM CLint. The procedure:
Compounds (final concentration = 1 µM; final DMSO concentration = 0.1%) were incubated in 0.1 M phosphate buffer at pH 7.4 with liver microsomes (human, mouse, rat or dog; 0.5 mg of protein/mL) at 37 °C. Reactions were started by addition of NADPH in 0.1 M phosphate buffer pH 7.4 (final concentration 1 mM). Reactions were quenched by addition of ice-cold methanol and frozen. The supernatants were analysed by LC/MS/MS on a Waters Acquity I-Class coupled to a Waters Xevo TQD mass spectrometer. A Waters BEH C18 2.1 × 50 mm 1.7 µm column was used and mobile phases consisted of water and methanol containing 0.1% formic acid as modifier. Analysis was by multiple reaction monitoring and conditions were optimised for each test compound.

Chain of p38α (Q16539 whole entry): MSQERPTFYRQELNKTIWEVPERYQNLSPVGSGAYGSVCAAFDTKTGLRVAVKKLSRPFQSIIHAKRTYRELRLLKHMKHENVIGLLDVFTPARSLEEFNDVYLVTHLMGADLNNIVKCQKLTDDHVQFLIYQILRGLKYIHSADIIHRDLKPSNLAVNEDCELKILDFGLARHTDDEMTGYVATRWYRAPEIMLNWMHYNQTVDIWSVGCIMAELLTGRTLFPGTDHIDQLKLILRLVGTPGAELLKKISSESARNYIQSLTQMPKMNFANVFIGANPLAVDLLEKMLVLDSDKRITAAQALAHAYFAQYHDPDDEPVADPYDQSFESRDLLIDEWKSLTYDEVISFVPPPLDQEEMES
T1 sequence (P31751 whole entry): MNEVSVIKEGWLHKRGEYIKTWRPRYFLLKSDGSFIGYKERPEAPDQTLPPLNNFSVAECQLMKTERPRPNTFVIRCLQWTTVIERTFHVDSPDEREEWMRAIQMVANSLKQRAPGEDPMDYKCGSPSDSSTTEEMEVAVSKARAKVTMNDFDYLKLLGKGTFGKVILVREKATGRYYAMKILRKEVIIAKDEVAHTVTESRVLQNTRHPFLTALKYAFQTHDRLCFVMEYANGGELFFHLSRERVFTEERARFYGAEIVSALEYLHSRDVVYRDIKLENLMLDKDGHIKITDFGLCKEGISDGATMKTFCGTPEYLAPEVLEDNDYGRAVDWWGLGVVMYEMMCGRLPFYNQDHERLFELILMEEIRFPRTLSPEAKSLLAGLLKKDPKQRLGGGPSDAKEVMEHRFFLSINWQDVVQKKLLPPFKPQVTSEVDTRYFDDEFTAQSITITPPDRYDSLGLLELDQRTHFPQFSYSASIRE

For the molecule `CCN1C(=O)COc2nc(-c3ccc([C@]4(N)C[C@@H](O)C4)cc3)c(-c3ccccc3)cc21` [ALM301, 6-(4-((1S,3S)-1-amino-3-hydroxycyclobutyl)phenyl)-1-ethyl-7-phenyl-1H-pyrido[2,3-b][1,4]oxazin-2(3H)-one], the inhibition at 10 µM in [1] stood at 89%; in [4] it was 72%; in data set [5] (read-out: % inhibition @ 10 µM, p38α, 10 µM fixed concentration), 84%. For the same molecule, the concentration for half-maximal inhibition (IC50) was 121 nM in [2] (ATP concentration 150 µM, read-out: IC50 vs. AKT1); 157 nM in [2] (ATP concentration 500 µM, read-out: IC50 vs. AKT1); 110 nM in data set [2] (ATP concentration 1000 µM, read-out: IC50 vs. AKT1); 125 nM in data set [2] (full length AKT1, read-out: IC50 full length AKT1); 130 nM in [2] (read-out: AKT IC50, AKT1); greater than 10000 nM in data set [5] (10-point titration curve). Also, the IC50 in [7] was 2250 nM; in data set [8], greater than 25000 nM. In data set [3], this molecule returned a pH-dependent lipophilicity (logD) at 4 h of 1.2. The “pAKT^S473 in tumours” value in data set [6] (all timepoints over 24 h, BALB/c mice bearing A549 xenografts) is “almost total abrogation”. The total plasma concentrations result in data set [6] (mice bearing A549 xenografts) is recorded as “dose-dependent increases”. Besides, in data set [9], the kinetic solubility was found to be 192 µM. Also, the microsomal CLint at 1 µM in data set [10] turned out to be 6 µL/min/mg.
